This data set concerns the target IRF4. To be noted: ASO.

51 sequences from the OligoGym collection can be followed below.

Values joined by “and” are separate entries in the source; they are usually repeats but may differ in a detail not shown here. Equal values may be shown once. After the bases stand the sugars from the 5' end (letter, count) and the backbone: PS all phosphorothioate, else s phosphorothioate and o phosphodiester by linkage. Methylation of C is not given here. e = 2'-O-(2-methoxyethyl) (MOE); k = constrained ethyl (cEt); d = 2'-deoxy (DNA)

Consider CCATAGAGCCAGAGCA (sugars k3 d10 k3, PS), for which the target mRNA inhibition (SK-MEL-28, 4 µM) was determined as 64%.

For AGGCACATGAGAAATC (sugars k3 d10 k3, PS), the target mRNA inhibition (SK-MEL-28, 4 µM) is 23%.

With CTAAATTCTAGTTTGC (sugars k3 d10 k3, PS), the target mRNA inhibition (SK-MEL-28, 4 µM) turned out to be 21%.

Take AGAAACAGAGACGCGG (sugars k3 d10 k3, PS): under “MM.1R, 1 µM”, the target mRNA inhibition came to 11%.

For GCAAAAAATATAACGG (sugars k3 d10 k3, PS), where the note is “SK-MEL-28, 4 µM”, the target mRNA inhibition came out at 47%.

Consider ATCTACTCCAGACCCC (sugars k3 d10 k3, PS), for which the target mRNA inhibition (SK-MEL-28, 4 µM) worked out at 27%.

Regarding “AAGCTTGATAAAGGCT (sugars kkdddddddddkdkdk, PS)”, the target mRNA inhibition (MM.1R, 1 µM) is -2%.

Regarding “TGTTACCGATGCTTCA (sugars kkdddddddddekeke, PS)”, for the setting “MM.1R, 1 µM”, the target mRNA inhibition was 35% and 49%.

In the case of “TGTAGTATGAGAAACG (sugars kkddddddddddkeke, PS)”, the target mRNA inhibition (MM.1R, 1 µM) came out at 10%.

On to AATTCCATAGAGCCAG (sugars k3 d10 k3, PS), for which, where the note is “MM.1R, 1 µM”, the target mRNA inhibition came to 18%.

Consider “ATGTGTATTACTCTTA (sugars kkdddddddddkekek, PS)”, for which the target mRNA inhibition (MM.1R, 1 µM) was 54% and 49%.

For the sequence ATACATTCACACTGCC (sugars k3 d10 k3, PS), the target mRNA inhibition (SK-MEL-28, 4 µM) stood at 45%.

For GTCTGAGATGTCCAGC (sugars k3 d10 k3, PS), where the note is “MM.1R, 1 µM”, the target mRNA inhibition turned out to be 7%.

Regarding GGGTACCCTGCGCTGC (sugars k3 d10 k3, PS), where the note is “SK-MEL-28, 4 µM”, the target mRNA inhibition is 44%.

On to TCACTTGCCGCCGCCT (sugars k3 d10 k3, PS), for which, where the note is “SK-MEL-28, 4 µM”, the target mRNA inhibition turned out to be 49%.

Take TAGGAAGCACTGGCAT (sugars k3 d10 k3, PS): the target mRNA inhibition (SK-MEL-28, 4 µM) amounted to 28%.

Consider TGGATCTGAATTGTTA (sugars k3 d10 k3, PS), for which, for the setting “SK-MEL-28, 4 µM”, the target mRNA inhibition was found to be 55%.

As for AGTCTTTTCGCATAGA (sugars k3 d10 k3, PS), the target mRNA inhibition (SK-MEL-28, 4 µM) worked out at 45%.

Regarding CCTAATCTACAACAAA (sugars k3 d10 k3, PS), the target mRNA inhibition (SK-MEL-28, 4 µM) was 15%.

Regarding GACTATTAGATAAGTA (sugars k3 d10 k3, PS), the target mRNA inhibition (SK-MEL-28, 4 µM) came out at 29%.

As to “TGATAGCTGAGCTGAT (sugars kkddddddddddkeke, PS)”, the target mRNA inhibition (MM.1R, 1 µM) was -17%.

As to CGGAAGAAGGCACCTT (sugars k3 d10 k3, PS), under “SK-MEL-28, 4 µM”, the target mRNA inhibition was -12%.

For the sequence GTTGGAGCAGCCATAG (sugars k3 d10 k3, PS), the target mRNA inhibition (SK-MEL-28, 4 µM) was 31%.

With GAATTTCCATTGGAGG (sugars k3 d10 k3, PS), for the setting “SK-MEL-28, 4 µM”, the target mRNA inhibition came out at 43%.

As to GCAAGTGTCTAAAGTC (sugars k3 d10 k3, PS), the target mRNA inhibition (MM.1R, 1 µM) is 49% and 53%.

In the case of “GTGATAGCTGAGCTGA (sugars kkdddddddddkekek, PS)”, the target mRNA inhibition (MM.1R, 1 µM) is 39%.

Consider CGCTTGTGGATATACA (sugars k3 d10 k3, PS), for which the target mRNA inhibition (MM.1R, 1 µM) came to 0%.

As to CACGAAGATTCAAAAG (sugars k3 d10 k3, PS), where the note is “SK-MEL-28, 4 µM”, the target mRNA inhibition is 10%.

“GCATTTTATCATCCGA (sugars kkkdddddddddkeke, PS)”: under “MM.1R, 1 µM”, the target mRNA inhibition came to 32%.

CTGCATTTGCAAATAA (sugars k3 d10 k3, PS): for the setting “SK-MEL-28, 4 µM”, the target mRNA inhibition is -21%.

Regarding “GTGATAGCTGAGCTGA (sugars kkdddddddddkdkdk, PS)”, the target mRNA inhibition (MM.1R, 1 µM) worked out at 34%.

Turning to AACTATAATTGGCACG (sugars k3 d10 k3, PS), the target mRNA inhibition (SK-MEL-28, 4 µM) is 73% and 59%.

On to CTGCTGCCCAATACAT (sugars k3 d10 k3, PS), for which, where the note is “SK-MEL-28, 4 µM”, the target mRNA inhibition was determined as 47%.

TAAGCAAGTGGAGGTC (sugars k3 d10 k3, PS): for the setting “SK-MEL-28, 4 µM”, the target mRNA inhibition turned out to be 47%.

GGACAATGGAGATACT (sugars k3 d10 k3, PS): the target mRNA inhibition (MM.1R, 1 µM) worked out at 3%.

For TGCAACTGGCTCACTA (sugars k3 d10 k3, PS), the target mRNA inhibition (SK-MEL-28, 4 µM) was determined as 17%.

Regarding “GAAGTTTACACTGGAT (sugars e1 k2 d9 k2 e2, PS)”, the target mRNA inhibition (MM.1R, 1 µM) was 48%.

Take GCAAAAGAAACGAGTT (sugars k3 d10 k3, PS): the target mRNA inhibition (SK-MEL-28, 4 µM) amounted to 8%.

GCGCACTAAGTGGGCT (sugars k3 d10 k3, PS): where the note is “SK-MEL-28, 4 µM”, the target mRNA inhibition was -10%.

With “CAGTGATGTCAGGTTT (sugars k2 d9 e3 k2, PS)”, the target mRNA inhibition is 0% (MM.1R, 0.074 µM); 12% (MM.1R, 0.222 µM); 34% (MM.1R, 0.666 µM); 56% (MM.1R, 1 µM); 57% (MM.1R, 2 µM).

As to ACCCATTTAATCTGTC (sugars k3 d10 k3, PS), the target mRNA inhibition (SK-MEL-28, 4 µM) turned out to be 57%.

Regarding GACAGTGACTTGCATC (sugars k3 d10 k3, PS), where the note is “MM.1R, 1 µM”, the target mRNA inhibition worked out at 24%.

In the case of AAGCAAGTGTCTAAAG (sugars k3 d10 k3, PS), for the setting “SK-MEL-28, 4 µM”, the target mRNA inhibition was 29%.

Consider “TTATATACTGGTTGGT (sugars kddddddddddkekek, PS)”, for which the target mRNA inhibition (MM.1R, 1 µM) came out at 22%.

On to CGAATAGGACCCCTAT (sugars k3 d10 k3, PS), for which the target mRNA inhibition (SK-MEL-28, 4 µM) was 9%.

In the case of ACATAACTCAGGCAAG (sugars k3 d10 k3, PS), the target mRNA inhibition (SK-MEL-28, 4 µM) worked out at 1%.

GATACAGCAGGCACTT (sugars k3 d10 k3, PS): for the setting “SK-MEL-28, 4 µM”, the target mRNA inhibition was determined as 63%.

In the case of GTGCAAGATGACTCCA (sugars k3 d10 k3, PS), the target mRNA inhibition (SK-MEL-28, 4 µM) is 56%.

Consider TCTTTGAAGTGCTGTG (sugars k3 d10 k3, PS), for which, under “SK-MEL-28, 4 µM”, the target mRNA inhibition amounted to 57%.

For TTAGGAACGAAGAGCA (sugars k3 d10 k3, PS), the target mRNA inhibition (SK-MEL-28, 4 µM) came out at 32%.

For the sequence AACGACAAGTGGCGCA (sugars k3 d10 k3, PS), for the setting “MM.1R, 1 µM”, the target mRNA inhibition was found to be 12%.
